Values of other authors, collected in patent publication US20050164162A1, “Methods for multiple parameters screening and evolution of cells to produce small molecules with multiple functionalities” (EVOLVA LTD., C/O DR. IUR. MARTIN EISENRING, priority 2002, published 2005).

What was measured:
[1] = tested on: colorectal cancer; settings: persons who regularly use Aspirin and other NSAIDs; population-based studies
[2] = co-administration of retinoids (LG100268)+TZDs; clinical studies

Row | SMILES | decrease in relative risk for colorectal cancer [1] | increases insulin sensitivity and glucose uptake [2]
1 | CC(=O)Oc1ccccc1C(=O)O [Aspirin] | 40-50% | 
2 | Cc1cc2c(cc1C1(c3ccc(C(=O)O)cn3)CC1)C(C)(C)CCC2(C)C [LG100268] |  | 60%
